Results as given in US5346896A, “1-(aryl or heteroaryl)-4[ω-(aryl or heteroaryl)ω-(aryl or heteroaryl)alkylene]piperazines” (John Wyeth & Brother, Limited, priority 1990, dated 1994).

Molecular target: T1, 5-HT1A receptor (Rattus norvegicus, UniProt P19327)
T1 construct: rat hippocampal membrane homogenate; from tissue; host or cells: rat hippocampus, membrane homogenate
T1 sequence (P19327 1-422): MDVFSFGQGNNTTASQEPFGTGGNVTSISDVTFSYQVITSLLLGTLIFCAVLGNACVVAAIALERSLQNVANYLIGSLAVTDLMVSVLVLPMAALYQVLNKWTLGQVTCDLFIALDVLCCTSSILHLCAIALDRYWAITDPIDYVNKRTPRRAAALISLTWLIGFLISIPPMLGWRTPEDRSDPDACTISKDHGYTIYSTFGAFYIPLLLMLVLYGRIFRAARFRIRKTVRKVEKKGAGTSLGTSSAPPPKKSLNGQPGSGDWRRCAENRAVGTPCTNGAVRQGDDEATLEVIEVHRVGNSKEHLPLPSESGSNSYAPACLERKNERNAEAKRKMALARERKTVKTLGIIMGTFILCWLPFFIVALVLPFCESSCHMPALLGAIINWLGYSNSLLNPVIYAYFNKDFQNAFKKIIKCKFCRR
Assay: 5-HT1A receptor binding activity in rat hippocampal membrane homogenate
Settings: method of Alexander and Wood
Experimental: The compounds of the invention are tested for 5-HT1A receptor binding activity in rat hippocampal membrane homogenate by the method of B. S. Alexander and M. D. Wood, J Pharm Pharmacol, 1988, 40, 888-891.

COc1ccccc1N1CCN(CC(c2ccccn2)C(O)c2ccccc2)CC1 (stereo not shown) [Example 2]
IC50: 20 nM
